In article PMC5589090 (PLoS Medicine, 2017):
Where “and” joins values, the source holds several entries; their conditions need not be identical. Equal values may be shown once.

What was measured:
[1] = test system: multiple intestinal adenomas; parameters: method as in ref 90 (a number printed in a supplementary file, which may have a reference list of its own: not looked up in the article's list); conditions: cited from earlier work
[2] = cited from earlier work
[3] = Adverse events (CTCAE v 4.0), phase 1 trial NCT01685515 in SCD adults; conditions: cohorts 1-5
Text: The primary endpoint was ≥ grade 3 non-hematologic toxicity.
For statistical comparisons of adverse events (AEs) between placebo and each dose group, we performed exact tests of the null hypothesis that the rate parameters of Poisson distributed AEs are equal. Relative risks are given as the ratio of such rate parameters. Thus, differences are insignificant if relative risks confidence intervals include 1. The R function poisson.test(), an exact test, was used. Pain, the most frequent AE, was analyzed similarly.

[4] = Decitabine storage and solution stability; assay type: physicochemical; conditions: 18 months at -20 °C
[5] = parameters: method as in ref 72 (a number printed in a supplementary file, which may have a reference list of its own: not looked up in the article's list); conditions: cited from earlier work
[6] = cited from earlier work; remark: listed apart in the source
[7] = rat, in vivo; cited from earlier work
[8] = cited from earlier work; remark: listed apart in the source
[9] = test system: E. Coli lac I transgene; conditions: ref 76 77; cited from earlier work
[10] = cited from earlier work; remark: listed apart in the source
[11] = test system: 10T1/2 cells and V79 cells; parameters: method as in ref 74 (a number printed in a supplementary file, which may have a reference list of its own: not looked up in the article's list); conditions: cited from earlier work
[12] = test system: lung tumor; parameters: method as in ref 91 (a number printed in a supplementary file, which may have a reference list of its own: not looked up in the article's list); conditions: cited from earlier work
[13] = test system: Salmonella typhimurium tester strain TA100; parameters: method as in ref 78 (a number printed in a supplementary file, which may have a reference list of its own: not looked up in the article's list); conditions: cited from earlier work

Nc1ncn([C@H]2C[C@H](O)[C@@H](CO)O2)c(=O)n1 [decitabine, 5-aza-2’-deoxycytidine]
tumor development [1]: do not develop tumors | plasma t ½ ([2]; Fig 1C, decitabine alone): < 15 min | decitabine half-life in vivo ([2]; abbreviated by CDA, ref 27;28): < 20 min | oral bioavailability ([2]; decitabine alone): negligible | plasma half-life ([2]; decitabine alone): only minutes | Cmax ([2]; read-out: Cmax that correlates with nucleotide pool imbalance, DNA-damage, and cytotoxicity): > 500 nM | grade 4 AEs [3]: no grade 4 AEs | drug substance stability on storage [4]: no change in appearance, assay or impurities | Max F-cell% ([5]; SC decitabine, mean ± SD, r3 HU non-responders (n=3), r4 HU responders (n=5), r5 all patients (n=8)): 55.1 ± 11.1% and 81.2 ± 4.4% and 71.4 ± 6.5% | recovery from neutropenia ([5]; all subjects): within a week | Pre-tx HbF% ([5]; baseline, mean ± SD, r3 HU non-responders, r4 HU responders, r5 all patients): 2.4 ± 1.6% and 9.0 ± 2.5% and 6.5 ± 1.4% | local toxicity at SQ injection sites [5]: No local toxicity | bone marrow aspirate spicule cellularity with treatment ([5]; four subjects): no appreciable decrease | Total Hb, peak ([5]; mean ± 2SD, pre-treatment 7.6 ± 2): 9.6 ± 1.8 | Adh. to laminin, Pretherapy ([5]; mean ± SE, baseline): 3470 ± 500 RBCs/mm^2 | Adhesion to TSP, Pretherapy ([5]; mean ± SE, baseline): 1570 ± 170 RBCs/mm^2 | CRP, Pretherapy ([5]; mean ± SE, baseline): 1.25 ± 0.27 mg/dL | D-Dimer, Pretherapy ([5]; mean ± SE, baseline): 490 ± 90 ng/mL | F1+2, Pretherapy ([5]; mean ± SE, baseline): 1.75 ± 0.22 nmol/L | TAT, Pretherapy ([5]; mean ± SE, baseline): 7.0 ± 1.7 µg/L | VWFpp, Pretherapy ([5]; mean ± SE, baseline): 196 ± 26 u/dL | sVCAM, Pretherapy ([5]; mean ± SE, baseline): 1170 ± 140 ng/mL | Adh. to laminin, Post Cycle 1 ([5]; mean ± SE): 1950 ± 300 RBCs/mm^2 | Adh. to laminin, Post Cycle 2 ([5]; mean ± SE): 1570 ± 210 RBCs/mm^2 | Adhesion to TSP, Post Cycle 1 ([5]; mean ± SE): 690 ± 150 RBCs/mm^2 | Adhesion to TSP, Post Cycle 2 ([5]; mean ± SE): 910 ± 160 RBCs/mm^2 | CRP, Post Cycle 1 ([5]; mean ± SE): 1.19 ± 0.34 mg/dL | CRP, Post Cycle 2 ([5]; mean ± SE): 0.82 ± 0.26 mg/dL | D-Dimer, Post Cycle 1 ([5]; mean ± SE): 320 ± 50 ng/mL | D-Dimer, Post Cycle 2 ([5]; mean ± SE): 300 ± 50 ng/mL | F1+2, Post Cycle 1 ([5]; mean ± SE): 1.56 ± 0.16 nmol/L | F1+2, Post Cycle 2 ([5]; mean ± SE): 1.41 ± 0.15 nmol/L | TAT, Post Cycle 1 ([5]; mean ± SE): 8.6 ± 2.3 µg/L | TAT, Post Cycle 2 ([5]; mean ± SE): 5.2 ± 0.9 µg/L | VWFpp, Post Cycle 1 ([5]; mean ± SE): 156 ± 28 u/dL | VWFpp, Post Cycle 2 ([5]; mean ± SE): 144 ± 13 u/dL | sVCAM, Post Cycle 1 ([5]; mean ± SE): 930 ± 100 ng/mL | sVCAM, Post Cycle 2 ([5]; mean ± SE): 840 ± 100 ng/mL | nadir ANC, NCI grade 4 neutropenia ([5]; one patient): 400 µL⁻¹ | absolute reticulocyte count (ARC) during treatment ([5]; p=0.0006): decreased | total bilirubin during treatment ([5]; p=0.01): decreased | nadir ANC, grade 3 neutropenia ([5]; two patients): 800 µL⁻¹ | fetal defects ([6]; pregnant mice, dose and gestation day related): increased fetal defects | fertility in off-spring after in utero exposure ([6]; primarily in males): decreased fertility in off-spring | embryo toxicity [7]: fetal resorption and fetal defects | Platelet counts, average increase ([8]; at the 6th week): 2.2 fold | time to maximum HbF [8]: ≤ 4 weeks | Total Hb increase ([8]; in 6 of 8 subjects): 1 g/dL | transient decline in neutrophils ([8]; nadir at 6 weeks): 3 fold | transgene mutations [9]: mutations predominantly at CpG nucleotides | greater decitabine exposure in rodents versus human dose for dose [10]: more than 100 fold | mutagenicity [11]: either did not show mutagenicity or was weakly mutagenic | reduction in tumor incidence [12]: 23% | reduction in tumor multiplicity [12]: 42% | mutagenicity [13]: weak mutagen
